Test results taken from ChEMBL document CHEMBL1201862, “PubChem BioAssay data set” (2004).
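All cell lines were grown in 96-well plates and treated with compound for 48 hours. GI50: concentration for 50% inhibition of growth.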 The source made the active and inactive calls. Rule as the data show it: active = GI50 up to about 1.1 µM and inactive = higher.

Tests used:
Experiment in all cases: NCI anticancer screen, dose series, 48 h
SK-MEL-5 = test system: SK-MEL-5
NCI-H460 = test system: NCI-H460
UO-31 = test system: UO-31
BT-549 = test system: BT-549
IGROV-1 = test system: IGROV-1
OVCAR-3 = test system: OVCAR-3
SK-MEL-28 = test system: SK-MEL-28
M14 = test system: M14
NCI-H522 = test system: NCI-H522
RPMI-8226 = test system: RPMI-8226
HCC 2998 = test system: HCC 2998
UACC-257 = test system: UACC-257
SNB-75 = test system: SNB-75
SNB-19 = test system: SNB-19
HL-60 = test system: HL-60
HCT-116 = test system: HCT-116
OVCAR-5 = test system: OVCAR-5
MDA-MB-435 = test system: MDA-MB-435
NCI-H226 = test system: NCI-H226
SF-539 = test system: SF-539

C=C1C(=O)O[C@H]2[C@H]1[C@H](OC(=O)/C(C)=C\C)C[C@]1(CO1)[C@@H]1[C@H](OC(C)=O)C=C(C)[C@]21O [EUPAROTIN ACETATE]
GI50 (SK-MEL-5): 17 µM (inactive) | GI50 (NCI-H460): 28 µM (inactive) | GI50 (UO-31): 13.7 µM (inactive) | GI50 (BT-549): 8.13 µM (inactive) | GI50 (IGROV-1): 19.5 µM (inactive) | GI50 (OVCAR-3): 14.7 µM (inactive) | GI50 (SK-MEL-28): 14.7 µM (inactive) | GI50 (M14): 21.6 µM (inactive) | GI50 (NCI-H522): 3.31 µM (inactive) | GI50 (RPMI-8226): 4.82 µM (inactive) | GI50 (HCC 2998): 19.3 µM (inactive) | GI50 (UACC-257): 17.7 µM (inactive) | GI50 (SNB-75): 67.5 µM (inactive) | GI50 (SNB-19): > 58.5 µM (inactive) | GI50 (HL-60): 2.66 µM (inactive) | GI50 (HCT-116): 6.58 µM (inactive) | GI50 (OVCAR-5): 25.4 µM (inactive) | GI50 (MDA-MB-435): 17.9 µM (inactive) | GI50 (NCI-H226): > 43 µM (inactive) | GI50 (SF-539): 30.3 µM (inactive)

CC(=O)OC1[C@@H](OC(C)=O)CN(OCc2ccccc2)C[C@H]1OC(C)=O (stereo not given in full)
GI50 (SK-MEL-5): > 100 µM (inactive) | GI50 (NCI-H460): > 100 µM (inactive) | GI50 (UO-31): > 100 µM (inactive) | GI50 (BT-549): > 100 µM (inactive) | GI50 (IGROV-1): > 100 µM (inactive) | GI50 (OVCAR-3): > 100 µM (inactive) | GI50 (SK-MEL-28): > 100 µM (inactive) | GI50 (M14): > 100 µM (inactive) | GI50 (NCI-H522): > 100 µM (inactive) | GI50 (RPMI-8226): > 100 µM (inactive) | GI50 (HCC 2998): > 100 µM (inactive) | GI50 (UACC-257): > 100 µM (inactive) | GI50 (SNB-75): > 100 µM (inactive) | GI50 (SNB-19): > 100 µM (inactive) | GI50 (HL-60): > 100 µM (inactive) | GI50 (HCT-116): > 100 µM (inactive) | GI50 (OVCAR-5): > 100 µM (inactive) | GI50 (MDA-MB-435): > 100 µM (inactive) | GI50 (NCI-H226): > 100 µM (inactive) | GI50 (SF-539): > 100 µM (inactive)

C[N+](C)(C)CC1CCCC1=O (stereo not given)
GI50 (SK-MEL-5): 5.68 µM (inactive) | GI50 (NCI-H460): 19.5 µM (inactive) | GI50 (UO-31): 2.5 µM (inactive) | GI50 (BT-549): 1 µM (active) | GI50 (IGROV-1): 16 µM (inactive) | GI50 (OVCAR-3): 2.36 µM (inactive) | GI50 (SK-MEL-28): 1.89 µM (inactive) | GI50 (M14): 0.929 µM (active) | GI50 (NCI-H522): < 0.0105 µM (active) | GI50 (RPMI-8226): 0.306 µM (active) | GI50 (HCC 2998): 16 µM (inactive) | GI50 (UACC-257): 5.53 µM (inactive) | GI50 (SNB-75): 3.1 µM (inactive) | GI50 (SNB-19): 20.2 µM (inactive) | GI50 (HL-60): 0.406 µM (active) | GI50 (HCT-116): 1.25 µM (inactive) | GI50 (OVCAR-5): 8.22 µM (inactive) | GI50 (MDA-MB-435): 1.71 µM (inactive) | GI50 (NCI-H226): 17.2 µM (inactive) | GI50 (SF-539): 2.98 µM (inactive)

C=CCN(c1cc(OC)c2[nH]c(C(=O)OCC)c(C)c2c1[N+](=O)[O-])S(C)(=O)=O
GI50 (SK-MEL-5): 16.1 µM (inactive) | GI50 (NCI-H460): 30.3 µM (inactive) | GI50 (UO-31): 21.5 µM (inactive) | GI50 (BT-549): 22.1 µM (inactive) | GI50 (IGROV-1): 33.7 µM (inactive) | GI50 (OVCAR-3): 23.8 µM (inactive) | GI50 (SK-MEL-28): 43.2 µM (inactive) | GI50 (M14): 30.8 µM (inactive) | GI50 (NCI-H522): 17.7 µM (inactive) | GI50 (RPMI-8226): 14.6 µM (inactive) | GI50 (HCC 2998): 45.5 µM (inactive) | GI50 (UACC-257): 39.9 µM (inactive) | GI50 (SNB-75): 15.2 µM (inactive) | GI50 (SNB-19): 28.4 µM (inactive) | GI50 (HL-60): 15.8 µM (inactive) | GI50 (HCT-116): 18.2 µM (inactive) | GI50 (OVCAR-5): 29.3 µM (inactive) | GI50 (MDA-MB-435): 24.7 µM (inactive) | GI50 (NCI-H226): 1.04 µM (active) | GI50 (SF-539): 33.6 µM (inactive)

COc1cc2c(cc1OC)C1C=NC(C2)c2cc(OC)c(OC)cc21 (stereo not given)
GI50 (SK-MEL-5): 40.5 µM (inactive) | GI50 (NCI-H460): > 100 µM (inactive) | GI50 (UO-31): 60.1 µM (inactive) | GI50 (BT-549): 81.8 µM (inactive) | GI50 (IGROV-1): 96.4 µM (inactive) | GI50 (OVCAR-3): > 100 µM (inactive) | GI50 (SK-MEL-28): > 100 µM (inactive) | GI50 (M14): > 100 µM (inactive) | GI50 (NCI-H522): 46.3 µM (inactive) | GI50 (RPMI-8226): 60.3 µM (inactive) | GI50 (HCC 2998): > 100 µM (inactive) | GI50 (UACC-257): > 100 µM (inactive) | GI50 (SNB-75): > 100 µM (inactive) | GI50 (SNB-19): > 100 µM (inactive) | GI50 (HL-60): 50.7 µM (inactive) | GI50 (HCT-116): > 100 µM (inactive) | GI50 (OVCAR-5): > 100 µM (inactive) | GI50 (MDA-MB-435): > 100 µM (inactive) | GI50 (NCI-H226): 6.97 µM (inactive) | GI50 (SF-539): > 100 µM (inactive)

O=C1c2ccsc2C(=O)c2sc(CO)cc21
GI50 (SK-MEL-5): < 0.0118 µM (active) | GI50 (NCI-H460): 1.47 µM (inactive) | GI50 (UO-31): 0.134 µM (active) | GI50 (BT-549): 0.0182 µM (active) | GI50 (IGROV-1): 0.627 µM (active) | GI50 (OVCAR-3): 1.59 µM (inactive) | GI50 (SK-MEL-28): 0.0307 µM (active) | GI50 (M14): < 0.0123 µM (active) | GI50 (NCI-H522): 0.106 µM (active) | GI50 (RPMI-8226): 0.22 µM (active) | GI50 (HCC 2998): 3.52 µM (inactive) | GI50 (UACC-257): 0.0456 µM (active) | GI50 (SNB-75): 0.0564 µM (active) | GI50 (SNB-19): 0.0929 µM (active) | GI50 (HL-60): 0.656 µM (active) | GI50 (HCT-116): 0.11 µM (active) | GI50 (OVCAR-5): 1.43 µM (inactive) | GI50 (MDA-MB-435): < 0.0132 µM (active) | GI50 (NCI-H226): 0.243 µM (active) | GI50 (SF-539): 0.0469 µM (active)

O=C(CCCN1CCC(Nc2ccccc2)(c2nnnn2C2CCCCC2)CC1)c1ccc(F)cc1
GI50 (SK-MEL-5): 1.64 µM (inactive) | GI50 (NCI-H460): 8.65 µM (inactive) | GI50 (UO-31): 3.78 µM (inactive) | GI50 (BT-549): 7.96 µM (inactive) | GI50 (IGROV-1): 11.1 µM (inactive) | GI50 (OVCAR-3): 9.27 µM (inactive) | GI50 (SK-MEL-28): 3.79 µM (inactive) | GI50 (M14): 1.99 µM (inactive) | GI50 (NCI-H522): 6.55 µM (inactive) | GI50 (RPMI-8226): 3.48 µM (inactive) | GI50 (HCC 2998): 3.29 µM (inactive) | GI50 (UACC-257): 2.52 µM (inactive) | GI50 (SNB-75): 10.2 µM (inactive) | GI50 (SNB-19): 9.64 µM (inactive) | GI50 (HL-60): 4.73 µM (inactive) | GI50 (HCT-116): 4.48 µM (inactive) | GI50 (OVCAR-5): 7.23 µM (inactive) | GI50 (MDA-MB-435): 6.62 µM (inactive) | GI50 (NCI-H226): 17.9 µM (inactive) | GI50 (SF-539): 2.25 µM (inactive)

O=c1c2ncn(C3CC(O)C(CO)O3)c2nnn1Cc1ccccc1[N+](=O)[O-] (stereo not given)
GI50 (SK-MEL-5): > 100 µM (inactive) | GI50 (NCI-H460): > 100 µM (inactive) | GI50 (UO-31): > 100 µM (inactive) | GI50 (BT-549): > 100 µM (inactive) | GI50 (IGROV-1): > 100 µM (inactive) | GI50 (OVCAR-3): 75 µM (inactive) | GI50 (SK-MEL-28): > 100 µM (inactive) | GI50 (M14): > 100 µM (inactive) | GI50 (NCI-H522): > 100 µM (inactive) | GI50 (RPMI-8226): > 100 µM (inactive) | GI50 (HCC 2998): > 100 µM (inactive) | GI50 (UACC-257): > 100 µM (inactive) | GI50 (SNB-75): > 100 µM (inactive) | GI50 (SNB-19): > 100 µM (inactive) | GI50 (HL-60): 57.3 µM (inactive) | GI50 (HCT-116): > 100 µM (inactive) | GI50 (OVCAR-5): > 100 µM (inactive) | GI50 (MDA-MB-435): > 100 µM (inactive) | GI50 (NCI-H226): 43.6 µM (inactive) | GI50 (SF-539): > 100 µM (inactive)
